According to patent US20120046353A1 (priority 2010, published 2012):
pIC50: −log10 of the molar value. Entries after “also recorded” stand apart in the source; their conditions may differ.

How the values were obtained:
[1] = molecular target: neuraminidase of swine influenza virus (H1N1) (Influenza A virus, UniProt Q20F35); format: biochemical, swine influenza virus A/Sw/Kor/CAN1/04 (H1N1)
[2] = molecular target: neuraminidase of novel influenza virus (Influenza A virus, UniProt C3W5S3); format: biochemical, novel influenza (H1N1) virus
neuraminidase = format: biochemical
[3] = molecular target: neuraminidase of avian influenza virus (H9N2) (Influenza A virus, UniProt A9LRT3); test: biochemical; design: species or system avian influenza virus A/chicken/Korea/01310/2001(H9N2)
[4] = IC50 for neuraminidase of avian influenza virus (H9N2)

Compound | Inhibitory mechanism against neuraminidase of swine influenza virus [1] | Inhibitory activity against neuraminidase of novel influenza virus, in words [2] | Type of inhibition from Lineweaver Burk plots (neuraminidase) | pIC50 [3, 4] | pIC50 ([3]; IC50 of Tamiflu against neuraminidase of avian influenza virus in combination with compound 4)
COc1c(C)c(O)c(C)c(O)c1C(=O)/C=C/c1ccc(O)cc1 [Compound 4, 4,2′,4′-trihydroxy-6′-methoxy-3′,5′-dimethylchalcone] | non-competitive inhibitor that reversibly inhibits; also recorded: noncompetitive inhibitor | excellent inhibitory activity | non-competitive inhibitor | – | –
COc1c(C)c(O)c(C)c(O)c1C(=O)/C=C/c1ccccc1 [Compound 5, 2′,4′-dihydroxy-6′-methoxy-3′,5′-dimethylchalcone] | – | excellent inhibitory activity | non-competitive inhibitor | – | –
COc1c(C)c(O)c2c(c1C)OC(c1ccccc1)CC2=O (centres unmarked) [Compound 6, 5-hydroxy-7-methoxy-6,8-dimethylflavanone] | – | – | – | < 3.30 | –
COc1cc(O)c(C)c(O)c1C(=O)/C=C/c1ccccc1 [Compound 8, 2′,4′-dihydroxy-3′-methyl-6′-methoxychalcone] | – | excellent inhibitory activity | non-competitive inhibitor | – | –
COc1cc(O)c(C)c2c1C(=O)CC(c1ccccc1)O2 (centres unmarked) [Compound 11, 7-hydroxy-5-methoxy-8-methylflavanone] | – | – | – | < 3.28 | –
Cc1c(O)cc(O)c2c1OC(c1ccccc1)CC2=O (centres unmarked) [Compound 12, 8-methylpinocembrin] | – | – | – | < 3.26 | –
COc1c(C)c(O)c(C)c(O)c1C(=O)/C=C/c1ccccc1O [Compound 14, 2,2′,4′-trihydroxy-6′-methoxy-3′,5′-dimethylchalcone] | – | excellent inhibitory activity | non-competitive inhibitor | – | –
CCOC(=O)C1=C[C@@H](OC(CC)CC)[C@H](NC(C)=O)[C@@H](N)C1 [Tamiflu, oseltamivir phosphate, reference compound] | – | – | – | 7.87 | 8.83
